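Cultured in 96-well plates, cells were exposed to test compound for 48 hours across five concentrations. GI50 marks 50% less growth. The concentration for full growth arrest is given as TGI.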
Legend:
Assay in all cases: NCI anticancer screen, dose series, 48 h
[1] = system: UACC-257 melanoma
[2] = system: NCI-H226 lung
[3] = system: MOLT-4 leukemia
[4] = system: HOP-92 NSCLC
[5] = system: SNB-75 CNS
[6] = system: NCI-H23 lung
[7] = system: NCI/ADR-RES ovarian
[8] = system: BT-549 breast
[9] = system: HCT-15 colon
[10] = system: MALME-3M melanoma

Row | SMILES | GI50 [1] [µM] | TGI [1] [µM] | GI50 [2] [µM] | TGI [2] [µM] | GI50 [3] [µM] | TGI [3] [µM] | GI50 [4] [µM] | TGI [4] [µM] | GI50 [5] [µM] | TGI [5] [µM] | GI50 [6] [µM] | TGI [6] [µM] | GI50 [7] [µM] | TGI [7] [µM] | GI50 [8] [µM] | TGI [8] [µM] | GI50 [9] [µM] | TGI [9] [µM] | GI50 [10] [µM] | TGI [10] [µM]
1 | CCOC(=O)c1cc2c(cc1Cl)SC(=Nc1ccccc1)N(S(=O)(=O)c1ccc(Br)s1)S2(=O)=O | 13.5 | 30.4 | 16.2 | 35 | 4.37 | 17.9 | 10.9 | 33.6 | 23.4 | 60.8 | 18.3 | 42.2 | 17.5 | 37.6 | 17.3 | 34.8 | 13.5 | 27.1 | – | –
2 | COc1cc(-c2nn(-c3cccc(NC(=O)CCN4CCN(Cc5ccccc5)CC4)c3)cc2-c2ccncc2)ccc1Cl | 1.7 | 3.55 | 2.91 | 47.7 | 1.15 | 5.8 | 0.79 | 4.44 | 1.55 | 8.73 | 1.73 | 9.26 | 0.44 | 2.28 | 2.27 | 8.59 | 0.635 | 3.72 | 1.01 | 2.55
3 | Nc1nc(N)c(CCCCc2ccccc2)c(N)n1 | – | > 100 | – | > 100 | – | > 100 | – | > 100 | – | > 100 | – | > 100 | – | > 100 | – | > 100 | – | > 100 | – | > 100
4 | N/C(=N\OC(=O)c1ccccc1)C(Cc1ccccc1)C(=O)NOC(=O)c1ccccc1 (configuration not stated) | 5.32 | 18.5 | 3.51 | 14 | 2.21 | 5.85 | 1.84 | 3.63 | 1.62 | 3.41 | 3.54 | 17.4 | 2.72 | 11.3 | 4.26 | 16.5 | 2.21 | 10.5 | 3.47 | 14.8
5 | COc1cc2c(cc1F)C(c1ccccc1Cl)=Nc1c(n[nH]c1C)N2 | 11.1 | 25.4 | 0.532 | 16.3 | 5 | 38.6 | 1.34 | 13.5 | 0.189 | 0.724 | 3.79 | 21 | 0.465 | 29.5 | 2.7 | 20.5 | 0.705 | 19.7 | 18 | 32.7
6 | O=C1C(OCCOc2ccccc2)=C(OCCOc2ccccc2)C(=O)c2ccccc21 | 3.72 | > 100 | 22.1 | > 100 | > 100 | > 100 | 1.21 | > 100 | 20.1 | > 100 | 1.82 | 24.3 | 7.64 | > 100 | > 100 | > 100 | 3.14 | > 100 | 24.5 | > 100
7 | Fc1ccc(/C=N/n2c(-c3ccc(F)c(Cl)c3)n[nH]c2=S)cc1 | 30.6 | 83 | 36.5 | 83.8 | 25.4 | 94.6 | 15.1 | 34.6 | 15.3 | 30.1 | 18.8 | 38.2 | 23.4 | 59.4 | 78.5 | > 100 | – | – | 18.3 | 60.2
8 | O=Nc1c(-c2c(O)[nH]c3ncccc23)[nH]c2ccccc12 | > 100 | > 100 | 15.3 | > 100 | 3.4 | > 100 | – | > 100 | 2.56 | > 100 | > 100 | > 100 | > 100 | > 100 | 5.41 | > 100 | 3.92 | > 100 | 8.83 | > 41.5
9 | Cc1[nH]c(-c2cc(N)ccc2Cl)c2c1C(=O)CCCC2 | 3.49 | > 100 | 3.37 | > 100 | 8.32 | > 100 | 1.93 | 63.8 | 0.183 | 5.2 | 5.06 | 64.6 | 4.78 | > 100 | 5.89 | > 100 | 3.3 | > 100 | 2.12 | 9.94
10 | COC(=O)c1cc(-c2ccc(OC)c(OC)c2)[nH]c1N/N=C/c1c(Cl)cccc1Cl | 0.723 | > 23.1 | 1.9 | > 51.3 | 0.68 | > 100 | 0.944 | 5.06 | 0.379 | 2.21 | 0.848 | 13 | 0.557 | 9.01 | 0.887 | 3.48 | 0.946 | 24 | 0.86 | 31.8
11 | Fc1cccc(F)c1C(Nc1nncs1)Nc1nncs1 | – | > 100 | – | > 100 | – | – | – | > 100 | – | > 100 | – | > 100 | – | > 100 | – | > 100 | – | > 100 | – | > 100
12 | CCC(=O)Nc1ccc(N2C(=O)/C(=C/c3ccc(OC)cc3)N=C2c2ccccc2)cc1 | 22.2 | > 50 | 8.93 | 33.7 | 1.06 | > 50 | 0.0351 | 21.1 | 6.86 | > 50 | 13.3 | > 50 | 9.77 | > 50 | 10.9 | 36.4 | 2.77 | > 50 | – | –
13 | CN=C1OC2(c3ccccc3)C3=C(OC(=NC)N2C)C(=O)OC3(c2ccccc2)N1C (configuration not stated) | – | > 100 | – | > 100 | – | > 100 | – | – | – | > 100 | – | > 100 | – | > 100 | – | > 100 | – | > 100 | – | –
14 | Oc1cc(-n2cccn2)c(O)cc1-n1cccn1 | – | 69.3 | – | > 89 | – | 61.8 | – | 39.8 | – | > 97.3 | – | 68.4 | – | > 100 | – | 35.7 | – | 51.6 | – | > 78.1
15 | CC(CO)(Nc1ccc([N+](=O)[O-])cc1[N+](=O)[O-])C(=O)O (configuration not stated) | – | 69.2 | – | > 100 | – | – | – | – | – | – | – | 62.4 | – | > 100 | – | 67.2 | – | 31.4 | – | 36.1
16 | Cc1[nH]nc(-c2ccon2)c1N=O | – | 31.7 | – | 28.6 | – | 6.18 | – | 29 | – | > 100 | – | 45.8 | – | 38 | – | 38 | – | 34.7 | – | 38.2

Row | SMILES | GI50 [1] [µM] | TGI [1] [µM] | GI50 [2] [µM] | TGI [2] [µM] | GI50 [3] [µM] | TGI [3] [µM] | GI50 [4] [µM] | TGI [4] [µM] | GI50 [5] [µM] | TGI [5] [µM] | GI50 [6] [µM] | TGI [6] [µM] | GI50 [7] [µM] | TGI [7] [µM] | GI50 [8] [µM] | TGI [8] [µM] | GI50 [9] [µM] | TGI [9] [µM] | GI50 [10] [µM] | TGI [10] [µM]
17 | Cn1ccnc1Oc1ccc(Cl)cc1 | – | 21.5 | – | 44.3 | – | 7.01 | – | 24.4 | – | 51.8 | – | 39.5 | – | 49 | – | 65.7 | – | 23.9 | – | 10.2
18 | CNNC(=NS(=O)(=O)c1cc(C#N)c(NNC)cc1S)NNC | – | > 10 | – | > 10 | – | > 10 | – | > 10 | – | > 10 | – | > 10 | – | > 10 | – | > 10 | – | > 10 | – | > 10
19 | O=C1c2c(Br)sc(Br)c2[C@@H](NC(=O)C(F)(F)F)C1Br (some centres not stated) | – | 3.97 | – | 15.1 | – | 5.32 | – | 6.69 | – | 16.1 | – | 7.14 | – | 11 | – | 10.1 | – | 4.61 | – | 4.88
20 | COc1ccc2c(c1)C(=O)c1c-2c(OCCN(C)C)nc2ccccc12 | 3.06 | 10.9 | 2.15 | 10.4 | 0.524 | 5.64 | 8.05 | 81.8 | 7.62 | 21.6 | 3.8 | 16.7 | 3.05 | 14.5 | 12 | 26 | 2.02 | 11.3 | 2.46 | 8.65
21 | Oc1c(-c2cc(C(F)(F)F)[nH]n2)cc(Cl)c(OCc2ccc(Cl)cc2)c1-c1ccc(Cl)c(C(F)(F)F)c1 | 1.12 | 3.59 | 0.917 | 2.68 | 0.903 | 3.2 | 0.111 | 0.542 | 0.496 | 1.74 | 0.265 | 4.06 | 0.221 | 5.82 | 0.624 | 2.16 | 0.153 | 0.693 | 0.789 | 2.19
22 | O=C(NNS(=O)(=O)c1ccc(Cl)cc1Cl)c1cccnc1Nc1ccc(Cl)cc1 | 22.9 | 60.5 | 23.9 | 58.5 | 19.6 | 58.2 | 14.6 | 40.7 | 22.4 | 84.4 | 17.3 | 42.6 | 23.4 | 76.5 | 16.8 | 35 | 33.4 | > 100 | 11.1 | 34.9
23 | C[n+]1c2ccccc2nc2c(N)cc(N)cc21 | – | – | 8.41 | > 100 | 3 | 22.6 | 35.4 | > 100 | 5.2 | 18.7 | 5.13 | 26.6 | 83.3 | > 100 | 2.62 | 12.5 | 57.6 | > 100 | 2.39 | 9.77
24 | NNc1nnc(-c2nnc(NN)o2)o1 | – | > 10 | – | > 10 | – | > 10 | – | > 10 | – | – | – | > 10 | – | > 10 | – | > 10 | – | > 10 | – | > 10
25 | CC(=O)O[C@@H]1C[C@@]2(C)[C@@H]3CC=C4[C@@H](C[C@H](O)C(=O)C4(C)C)[C@]3(C)C(=O)C[C@]2(C)[C@H]1[C@@](C)(O)C(=O)/C=C/C(C)(C)OC(C)=O | – | 50.4 | – | 3.31 | – | > 31.6 | – | 6.98 | – | 25.3 | – | 24.1 | – | 43.8 | – | 0.713 | – | 12.3 | – | –
26 | C[CH2][Hg][S]c1ccccc1C(=O)O | 1.18 | 2.45 | – | – | 2.43 | 6.7 | – | – | 2.98 | 10.8 | 1.18 | 2.7 | 1.94 | 4.79 | 1.43 | 2.76 | 1.07 | 2.52 | 0.801 | 2.25
27 | COc1cccc(Oc2ccccc2NC(=O)CNC(=O)c2cccc3ccccc23)c1 | – | – | 2.49 | > 25 | 0.654 | > 25 | 0.202 | 14.9 | 0.128 | > 25 | 0.735 | > 25 | 0.238 | 5.69 | 0.298 | 10.2 | 0.129 | > 25 | 16.9 | > 25
28 | C1CSCCSCCCSCCSCCCSCCSCCCSCCSC1 | – | > 100 | – | > 100 | – | > 100 | – | > 100 | – | – | – | > 100 | – | > 100 | – | > 100 | – | > 100 | – | > 100
29 | C=CCC1(C)CCCN(Cc2ccccc2)C1=O (configuration not stated) | – | > 10 | – | > 10 | – | > 10 | – | > 10 | – | – | – | > 10 | – | > 10 | – | > 10 | – | > 10 | – | > 10
30 | O=C(CN1N=C(c2ccc(F)cc2)CCC1=O)Nc1nc2ccccc2s1 | > 100 | > 100 | 69.7 | > 100 | 7.61 | 31.5 | 1.31 | 2.84 | 17.9 | > 100 | – | – | > 28.2 | > 100 | 4.81 | – | 41.6 | > 100 | 0.621 | 1.56
31 | N#CCCNc1nonc1-c1nc2ccccc2n1CC(=O)c1ccc(NC(=O)[C@@H](N)CCCCN)cc1 | > 100 | > 100 | – | > 100 | 0.0451 | > 100 | 0.487 | > 100 | 0.0106 | > 100 | 0.0483 | – | – | – | 0.0311 | – | 0.0356 | > 100 | > 100 | > 100

— PubChem BioAssay (NCI)
